# Patent US10981916B2, “Substituted pyrazolopyrimidinone compounds as PDE2 inhibitors” (DART NEUROSCIENCE, LLC, priority 2016, dated 2021)
# Target: PDE2A (Homo sapiens (Human), UniProt O00408)
# Experiment: IMAP TR-FRET PDE2A enzymatic assay
# Type: biochemical
# Details: FLAG-tagged PDE2A1 (amino acids 2-941), 200 nM FAM-cAMP substrate, 11-point half-log dose-response
# Text: An IMAP TR-FRET-based phosphodiesterase assay was developed using the PDE2A isoform. IMAP technology is based on high-affinity binding of phosphate by immobilized metal (MIII) coordination complexes on nanoparticles. The IMAP “binding reagent” recognizes phosphate groups on AMP or GMP generated from cAMP or cGMP in a PDE reaction. Cyclic nucleotides that carry a phosphodiester bond and not a free phosphate are not recognized by the binding reagent. The time resolved fluorescence resonance energy transfer (TR-FRET) is afforded by a Terbium (Tb)-Donor pre-bound to the nanoparticles. FRET occurs when the fluorescent-labeled AMP or GMP product of a PDE reaction binds and comes into close proximity to the Tb-Donor complex. Due to the long lifetime of Tb fluorescence, detection can be run in time-resolved mode to reduce or eliminate interference from auto-fluorescent compounds.
# The IMAP TR-FRET PDE2A assay was performed in 1536-well white plates. A total of 250 pg per well of FLAG-tagged PDE2A 1 (amino acids 2-941) was dispensed in 2.5 μL IMAP assay buffer consisting of 10 mM Tris pH 7.2, 10 mM MgCl2, 1 mM DTT, and 0.1% fatty acid free BSA. 30 nL of compound was then added from 1 mM stocks in DMSO using a Kalypsys Pintool. Plates were incubated for 5 min at room temperature before dispensing 1.5 μL of 533 nM FAM-cAMP substrate for a final concentration of 200 nM. Following a brief centrifugation, plates were incubated for 30 min at room temperature. The assay was terminated by adding 5 μL IMAP binding reagent Tb complex to each well which was prepared according to manufacturer's recommendations (Molecular Devices). Plates were incubated an additional 120 minutes at room temperature and read on a Viewlux plate reader. All compounds were solvated at a concentration of 10 mM in DMSO and tested in 11-point half-log dose-response. Curve fitting and IC50 values were determined using a standard four parameter fit.
# PDE2A, sequence (O00408 2-941): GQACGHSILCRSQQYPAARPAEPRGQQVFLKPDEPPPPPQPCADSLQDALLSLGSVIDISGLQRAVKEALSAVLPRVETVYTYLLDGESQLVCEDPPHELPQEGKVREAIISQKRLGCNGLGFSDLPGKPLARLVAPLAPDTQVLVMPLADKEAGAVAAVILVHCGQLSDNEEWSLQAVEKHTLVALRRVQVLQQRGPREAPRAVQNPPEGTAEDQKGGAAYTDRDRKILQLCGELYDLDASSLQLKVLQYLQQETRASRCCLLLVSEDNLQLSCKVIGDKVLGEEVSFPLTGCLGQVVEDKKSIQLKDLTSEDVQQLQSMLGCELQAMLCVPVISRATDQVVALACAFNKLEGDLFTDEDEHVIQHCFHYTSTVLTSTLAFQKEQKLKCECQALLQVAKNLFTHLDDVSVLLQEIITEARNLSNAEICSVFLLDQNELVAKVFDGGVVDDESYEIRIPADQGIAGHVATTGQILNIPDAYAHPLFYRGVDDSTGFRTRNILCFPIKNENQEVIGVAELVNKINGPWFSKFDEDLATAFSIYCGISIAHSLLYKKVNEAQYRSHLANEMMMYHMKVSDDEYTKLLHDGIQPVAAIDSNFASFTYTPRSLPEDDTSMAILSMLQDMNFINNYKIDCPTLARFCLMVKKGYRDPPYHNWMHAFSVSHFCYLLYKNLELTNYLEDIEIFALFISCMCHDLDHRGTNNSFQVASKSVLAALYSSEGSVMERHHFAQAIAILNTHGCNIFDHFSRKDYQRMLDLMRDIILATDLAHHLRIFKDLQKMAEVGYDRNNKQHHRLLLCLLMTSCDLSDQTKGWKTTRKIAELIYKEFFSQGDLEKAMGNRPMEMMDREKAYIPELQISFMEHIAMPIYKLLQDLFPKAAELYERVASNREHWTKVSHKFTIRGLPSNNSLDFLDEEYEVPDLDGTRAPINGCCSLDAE
row,Compound,PDE2 (pIC50)
1,"CC[C@@H](c1ccc(C(F)(F)F)nc1)n1nc(C2CC2)c2c(=O)[nH]c(Cc3ccc(OC)cn3)nc21 [Example 17, 3-cyclopropyl-6-[(5-methoxypyridin-2-yl)methyl]-1-[(1S)-1-[6-(trifluoromethyl)pyridin-3-yl]propyl]-1H,4H,5H-pyrazolo[3,4-d]pyrimidin-4-one]",>7
2,"CC[C@@H](c1ccc(C(F)(F)F)cn1)n1nc(C2CC2)c2c(=O)[nH]c(C)nc21 [Example 23, 3-cyclopropyl-6-methyl-1-[(1S)-1-[5-(trifluoromethyl)pyridin-2-yl]propyl]-1H,4H,5H-pyrazolo[3,4-d]pyrimidin-4-one]",>7
3,"Cc1nc2c(c(C3CC3)nn2C(C)c2ccc(C(F)(F)F)nc2)c(=O)[nH]1 (stereo not shown) [Example 12, 3-cyclopropyl-6-methyl-1-{1-[6-(trifluoromethyl)pyridin-3-yl]ethyl}-1H,4H,5H-pyrazolo[3,4-d]pyrimidin-4-one]",>7
4,"CC[C@H](c1ccc(C(F)(F)F)nc1)n1nc(C2CC2)c2c(=O)[nH]c(Cc3ccc(OC)cn3)nc21 [Example 18, 3-cyclopropyl-6-[(5-methoxypyridin-2-yl)methyl]-1-[(1R)-1-[6-(trifluoromethyl)pyridin-3-yl]propyl]-1H,4H,5H-pyrazolo[3,4-d]pyrimidin-4-one]",<5
5,"CC[C@@H](c1ccc(C(F)(F)F)nc1)n1nc(C2CC2)c2c(=O)[nH]c(C)nc21 [Example 19, 3-cyclopropyl-6-methyl-1-[(1S)-1-[6-(trifluoromethyl)pyridin-3-yl]propyl]-1H,4H,5H-pyrazolo[3,4-d]pyrimidin-4-one]",>7
6,"CC[C@@H](c1ccc(C(F)(F)F)nc1)n1nc(C2CC2)c2c(=O)[nH]c(Cc3ccc(F)cn3)nc21 [Example 21, 3-cyclopropyl-6-[(5-fluoropyridin-2-yl)methyl]-1-[(1S)-1-[6-(trifluoromethyl)pyridin-3-yl]propyl]-1H,4H,5H-pyrazolo[3,4-d]pyrimidin-4-one]",>7
7,"CCC(c1ccc(C(F)(F)F)nc1)n1nc(C2CC2)c2c(=O)[nH]c(Cc3ccc(OC)cn3)nc21 (stereo not shown) [Example 1, 3-cyclopropyl-6-[(5-methoxypyridin-2-yl)methyl]-1-{1-[6-(trifluoromethyl)pyridin-3-yl]propyl}-1H,4H,5H-pyrazolo[3,4-d]pyrimidin-4-one]",>7
8,"Cc1nc2c(c(C3CC3)nn2C(C)c2ccc(C(F)(F)F)cn2)c(=O)[nH]1 (stereo not shown) [Example 11, 3-cyclopropyl-6-methyl-1-{1-[5-(trifluoromethyl)pyridin-2-yl]ethyl}-1H,4H,5H-pyrazolo[3,4-d]pyrimidin-4-one]",>7
9,"C[C@H](c1ccc(C(F)(F)F)nc1)n1nc(C2CC2)c2c(=O)[nH]c(Cc3ccc(F)cn3)nc21 [Example 16, 3-cyclopropyl-6-[(5-fluoropyridin-2-yl)methyl]-1-[(1R)-1-[6-(trifluoromethyl)pyridin-3-yl]ethyl]-1H,4H,5H-pyrazolo[3,4-d]pyrimidin-4-one]",<5
10,"Cc1nc2c(c(C3CC3)nn2C(C)c2ccc(C(F)(F)F)cc2)c(=O)[nH]1 (stereo not shown) [Example 10, 3-cyclopropyl-6-methyl-1-{1-[4-(trifluoromethyl)phenyl]ethyl}-1H,4H,5H-pyrazolo[3,4-d]pyrimidin-4-one]",>7
11,"Cc1nc2c(c(C3CC3)nn2[C@@H](C)c2ccc(C(F)(F)F)cn2)c(=O)[nH]1 [Example 25, 3-cyclopropyl-6-methyl-1-[(1S)-1-[5-(trifluoromethyl)pyridin-2-yl]ethyl]-1H,4H,5H-pyrazolo[3,4-d]pyrimidin-4-one]",>7
12,"CCC(c1ccc(C(F)(F)F)cn1)n1nc(C2CC2)c2c(=O)[nH]c(C)nc21 (stereo not shown) [Example 9, 3-cyclopropyl-6-methyl-1-{1-[5-(trifluoromethyl)pyridin-2-yl]propyl}-1H,4H,5H-pyrazolo[3,4-d]pyrimidin-4-one]",>7
13,"CCC(c1ccc(C(F)(F)F)nc1)n1nc(C2CC2)c2c(=O)[nH]c(Cc3ccc(F)cn3)nc21 (stereo not shown) [Example 8, 3-cyclopropyl-6-[(5-fluoropyridin-2-yl)methyl]-1-{1-[6-(trifluoromethyl)pyridin-3-yl]propyl}-1H,4H,5H-pyrazolo[3,4-d]pyrimidin-4-one]",>7
14,"COc1ccc(Cc2nc3c(c(C4CC4)nn3C(C)c3ccc(C(F)(F)F)nc3)c(=O)[nH]2)nc1 (stereo not shown) [Example 2, 3-cyclopropyl-6-[(5-methoxypyridin-2-yl)methyl]-1-{1-[6-(trifluoromethyl)pyridin-3-yl]ethyl}-1H,4H,5H-pyrazolo[3,4-d]pyrimidin-4-one]",>7
15,"COc1ccc(Cc2nc3c(c(C4CC4)nn3[C@@H](C)c3ccc(C(F)(F)F)nc3)c(=O)[nH]2)nc1 [Example 5, 3-cyclopropyl-6-[(5-methoxypyridin-2-yl)methyl]-1-[(1S)-1-[6-(trifluoromethyl)pyridin-3-yl]ethyl]-1H,4H,5H-pyrazolo[3,4-d]pyrimidin-4-one]",>7

# Same assay, conditions: FLAG-tagged PDE2A1 (amino acids 2-941), 200 nM FAM-cAMP substrate, 11-point half-log dose-response; read-out: PDE2 (pIC50) (converted)
row,Compound,IC50 [nM]
1,"COc1ccc(Cc2nc3c(c(C4CC4)nn3[C@H](C)c3ccc(C(F)(F)F)nc3)c(=O)[nH]2)nc1 [Example 6, 3-cyclopropyl-6-[(5-methoxypyridin-2-yl)methyl]-1-[(1R)-1-[6-(trifluoromethyl)pyridin-3-yl]ethyl]-1H,4H,5H-pyrazolo[3,4-d]pyrimidin-4-one]",100 to 1000
2,"CC(c1ccc(C(F)(F)F)nc1)n1nc(C2CC2)c2c(=O)[nH]c(Cc3ccc(F)cn3)nc21 (stereo not shown) [Example 7, 3-cyclopropyl-6-[(5-fluoropyridin-2-yl)methyl]-1-{1-[6-(trifluoromethyl)pyridin-3-yl]ethyl}-1H,4H,5H-pyrazolo[3,4-d]pyrimidin-4-one]",100 to 1000
3,"CC[C@H](c1ccc(C(F)(F)F)nc1)n1nc(C2CC2)c2c(=O)[nH]c(C)nc21 [Example 20, 3-cyclopropyl-6-methyl-1-[(1R)-1-[6-(trifluoromethyl)pyridin-3-yl]propyl]-1H,4H,5H-pyrazolo[3,4-d]pyrimidin-4-one]",1000 to 10000
4,"Cc1nc2c(c(C3CC3)nn2[C@H](C)c2ccc(C(F)(F)F)nc2)c(=O)[nH]1 [Example 14, 3-cyclopropyl-6-methyl-1-[(1R)-1-[6-(trifluoromethyl)pyridin-3-yl]ethyl]-1H,4H,5H-pyrazolo[3,4-d]pyrimidin-4-one]",1000 to 10000
5,"CC[C@H](c1ccc(C(F)(F)F)nc1)n1nc(C2CC2)c2c(=O)[nH]c(Cc3ccc(F)cn3)nc21 [Example 22, 3-cyclopropyl-6-[(5-fluoropyridin-2-yl)methyl]-1-[(1R)-1-[6-(trifluoromethyl)pyridin-3-yl]propyl]-1H,4H,5H-pyrazolo[3,4-d]pyrimidin-4-one]",1000 to 10000
6,"CCC(c1ccc(C(F)(F)F)nc1)n1nc(C2CCC2)c2c(=O)[nH]c(C)nc21 (stereo not shown) [Example 4, 3-cyclobutyl-6-methyl-1-{1-[6-(trifluoromethyl)pyridin-3-yl]propyl}-1H,4H,5H-pyrazolo[3,4-d]pyrimidin-4-one]",> 10000
7,"CCC(c1ccc(C(F)(F)F)nc1)n1nc(C2CC2)c2c(=O)[nH]c(C)nc21 (stereo not shown) [Example 3, 3-cyclopropyl-6-methyl-1-{1-[6-(trifluoromethyl)pyridin-3-yl]propyl}-1H,4H,5H-pyrazolo[3,4-d]pyrimidin-4-one]",100 to 1000
8,"CC[C@H](c1ccc(C(F)(F)F)cn1)n1nc(C2CC2)c2c(=O)[nH]c(C)nc21 [Example 24, 3-cyclopropyl-6-methyl-1-[(1R)-1-[5-(trifluoromethyl)pyridin-2-yl]propyl]-1H,4H,5H-pyrazolo[3,4-d]pyrimidin-4-one]",1000 to 10000
9,"Cc1nc2c(c(C3CC3)nn2[C@H](C)c2ccc(C(F)(F)F)cn2)c(=O)[nH]1 [Example 26, 3-cyclopropyl-6-methyl-1-[(1R)-1-[5-(trifluoromethyl)pyridin-2-yl]ethyl]-1H,4H,5H-pyrazolo[3,4-d]pyrimidin-4-one]",1000 to 10000
10,"C[C@@H](c1ccc(C(F)(F)F)nc1)n1nc(C2CC2)c2c(=O)[nH]c(Cc3ccc(F)cn3)nc21 [Example 15, 3-cyclopropyl-6-[(5-fluoropyridin-2-yl)methyl]-1-[(1S)-1-[6-(trifluoromethyl)pyridin-3-yl]ethyl]-1H,4H,5H-pyrazolo[3,4-d]pyrimidin-4-one]",100 to 1000
